{"source": "patent EP0305400B1", "about": "“A COMPOSITION HAVING REDUCED NEPHROTOXICITY COMPRISING A FATTY ACID CONTAINING COMPONENT AND CYCLOSPORINE” (BRIGHAM AND WOMEN'S HOSPITAL, priority 1986, dated 1987)", "origin": "cited, not measured here", "system": "Tx synthetase", "settings": "rats treated with CSA"}
{"smiles": "Cc1c(Cn2ccnc2)c2ccccc2n1CCC(=O)O", "note": "[UK-38,485]", "values": [{"measurement": "glomerular filtration rate (GFR)", "value": "improved"}, {"measurement": "urinary TxB2 levels", "value": "comparable to control levels"}]}
